Values of other authors as cited in US20040259736A1, “Biodegradable solid preparation of a phytopathologicalagent with delayed active substance release” (priority 2001, published 2004).
Values after ≈ are worked out from the molar mass of the structure shown.

CN/C(=N\[N+](=O)[O-])NCc1cnc(Cl)s1 [Clothianidin, (E)-1-(2-chlorothiazol-5-ylmethyl)-3-methyl-2-nitroguanidine]
solubility in water: 270 µg/mL (≈ 1080 µM)

CNC(=O)C(=NOC)c1ccccc1CO/N=C(\C)C(=NOC)/C(C)=N/OC [II-4, N-Methyl-2-(methoxyimino)-2-{2-[(3E,6E)-5-(methoxyimino)-4,6-dimethyl-2,8-dioxa-3,7-diazanona-3,6-dien-1-yl]phenyl}-acetamide]
solubility in water: 80 µg/mL (≈ 204 µM)

CNC(=N[N+](=O)[O-])NCC1CCOC1 (stereo not shown) [MTI-446]
solubility in water: 54000 µg/mL (≈ 267000 µM)
solubility in water (in words): freely soluble in water
